Measurements as given in the NIST ThermoML archive (doi:10.1016/j.tca.2006.10.025).

How the values were obtained:
[1] = molar heat capacity at constant pressure; conditions: 101.33 kPa, Liquid, Small sample (50 mg) DSC
[2] = 303.15 K; 101.33 kPa; Liquid; Vibrating tube method
[3] = molar heat capacity at constant pressure; xn = mol fraction of the nth substance listed; conditions: 303.15 K, 101 kPa, Liquid, Small sample (50 mg) DSC
[4] = excess molar enthalpy (molar enthalpy of mixing); xn = mol fraction of the nth substance listed; conditions: 303.15 K, 101 kPa, Liquid, Flow calorimetry

CCCCCCCCO [octan-1-ol]
[1]
Conditions	molar heat capacity at constant pressure [J/K/mol]
288.15 K	294.2
293.15 K	300.3
298.15 K	304.4
303.15 K	309.2
308.15 K	314.4
313.15 K	319.5
318.15 K	326.2
323.15 K	332.7

Conditions	mass density [kg/m3]
[2]	818.24

CCCCO [butan-1-ol]
[1]
Conditions	molar heat capacity at constant pressure [J/K/mol]
288.15 K	166.2
293.15 K	171.8
298.15 K	175.3
303.15 K	178.9
308.15 K	182.8
313.15 K	186.6
318.15 K	190.8
323.15 K	194.7

Conditions	mass density [kg/m3]
[2]	801.98

CCCCCCCCO [octan-1-ol] + C[S+](C)[O-]
Conditions	excess molar enthalpy [kcal/mol]	molar heat capacity at constant pressure [J/K/mol]
[3], x2 = 0.0953	–	296.5
[3], x2 = 0.1847	–	284.2
[3], x2 = 0.3137	–	264.7
[3], x2 = 0.3478	–	256.2
[3], x2 = 0.4629	–	241.9
[3], x2 = 0.5855	–	221.6
[3], x2 = 0.6299	–	215.1
[3], x2 = 0.7302	–	200.6
[3], x2 = 0.7656	–	193.2
[3], x2 = 0.842	–	182.1
[3], x2 = 0.8956	–	173.1
[3], x2 = 0.9603	–	162.4
[4], x2 = 0.0847	0.112	–
[4], x2 = 0.1562	0.195	–
[4], x2 = 0.2173	0.257	–
[4], x2 = 0.2702	0.29	–
[4], x2 = 0.3571	0.331	–
[4], x2 = 0.4254	0.35	–
[4], x2 = 0.5262	0.354	–
[4], x2 = 0.5968	0.351	–
[4], x2 = 0.6896	0.332	–
[4], x2 = 0.7692	0.304	–
[4], x2 = 0.8163	0.273	–
[4], x2 = 0.8696	0.228	–
[4], x2 = 0.8988	0.195	–
[4], x2 = 0.9302	0.15	–
[4], x2 = 0.9467	0.121	–
[4], x2 = 0.9638	0.0868	–
[4], x2 = 0.9816	0.0468	–

CCCO [propan-1-ol]
[1]
Conditions	molar heat capacity at constant pressure [J/K/mol]
288.15 K	139
293.15 K	142.3
298.15 K	144.9
303.15 K	148.3
308.15 K	151
313.15 K	153.7
318.15 K	157.1
323.15 K	160.1

Conditions	mass density [kg/m3]
[2]	795.48

CCCCCCCCCCO [decan-1-ol]
[1]
Conditions	molar heat capacity at constant pressure [J/K/mol]
288.15 K	360.1
293.15 K	368.5
298.15 K	373.9
303.15 K	379.3
308.15 K	385.3
313.15 K	390.6
318.15 K	395.9
323.15 K	401.3

Conditions	mass density [kg/m3]
[2]	822.95

C[S+](C)[O-] [dimethyl sulfoxide] + CO
Conditions	excess molar enthalpy [kcal/mol]	molar heat capacity at constant pressure [J/K/mol]
[3], x1 = 0.0308	–	84
[3], x1 = 0.061	–	85.8
[3], x1 = 0.1103	–	88.3
[3], x1 = 0.197	–	93.9
[3], x1 = 0.2818	–	97.8
[3], x1 = 0.3571	–	102.3
[3], x1 = 0.4676	–	109.7
[3], x1 = 0.5886	–	116.1
[3], x1 = 0.6833	–	124.6
[3], x1 = 0.8398	–	137.5
[3], x1 = 0.9068	–	142.5
[3], x1 = 0.923	–	144.6
[4], x1 = 0.0176	0.00191	–
[4], x1 = 0.0233	0.00215	–
[4], x1 = 0.0455	0.000717	–
[4], x1 = 0.0667	-0.00263	–
[4], x1 = 0.087	-0.00765	–
[4], x1 = 0.1251	-0.0194	–
[4], x1 = 0.1601	-0.0318	–
[4], x1 = 0.2223	-0.0543	–
[4], x1 = 0.276	-0.0712	–
[4], x1 = 0.3639	-0.0908	–
[4], x1 = 0.4619	-0.102	–
[4], x1 = 0.5336	-0.103	–
[4], x1 = 0.6318	-0.0985	–
[4], x1 = 0.6959	-0.0891	–
[4], x1 = 0.7744	-0.0758	–
[4], x1 = 0.8207	-0.0605	–
[4], x1 = 0.8728	-0.0442	–
[4], x1 = 0.9321	-0.0232	–

CO [methanol]
[1]
Conditions	molar heat capacity at constant pressure [J/K/mol]
288.15 K	78.1
293.15 K	79.3
298.15 K	81
303.15 K	82.2
308.15 K	83.4
313.15 K	85.6
318.15 K	87.5
323.15 K	89.5

Conditions	mass density [kg/m3]
[2]	781.81

C[S+](C)[O-] [dimethyl sulfoxide] + CCCO
Conditions	excess molar enthalpy [kcal/mol]	molar heat capacity at constant pressure [J/K/mol]
[3], x1 = 0.0514	–	146.2
[3], x1 = 0.1127	–	144
[3], x1 = 0.2114	–	141.8
[3], x1 = 0.3163	–	142.6
[3], x1 = 0.418	–	139.9
[3], x1 = 0.5029	–	140.6
[3], x1 = 0.6216	–	140.7
[3], x1 = 0.7068	–	141.6
[3], x1 = 0.7975	–	144.2
[3], x1 = 0.8537	–	145.6
[3], x1 = 0.8994	–	146.5
[3], x1 = 0.9429	–	147.6
[4], x1 = 0.0421	0.0449	–
[4], x1 = 0.0808	0.0803	–
[4], x1 = 0.1165	0.109	–
[4], x1 = 0.1495	0.134	–
[4], x1 = 0.2086	0.163	–
[4], x1 = 0.2601	0.184	–
[4], x1 = 0.3452	0.204	–
[4], x1 = 0.4127	0.21	–
[4], x1 = 0.5133	0.205	–
[4], x1 = 0.6128	0.189	–
[4], x1 = 0.6783	0.171	–
[4], x1 = 0.7598	0.136	–
[4], x1 = 0.8084	0.118	–
[4], x1 = 0.8634	0.0884	–
[4], x1 = 0.894	0.0722	–
[4], x1 = 0.9268	0.0521	–
[4], x1 = 0.962	0.0282	–
